Legend:
[1] = pH of binding buffer when amino compounds were added; type: physicochemical; details: FIG. 11
Protocol: Change in the pH when the concentration of each of spermidine·3HCl, spermine, and 1,3-diaminopropane added to binding buffer was changed was evaluated. Binding buffer was used for a reaction buffer.

EnGen Lba Cas12a (Cpf1) = experiment: Experiment of cleavage activity of Cas12a (trans-cleavage of fluorescent reporter molecule); type: biochemical; details: for rising of fluorescence compared with no addition: addition concentration 12 mM; for addition concentration at which an effect of facilitating the reaction was observed: concentration changed between 0 to 12 mM, FIGS. 4A to 4E
Protocol: (§1) Thereafter, in a 96-well plate (137101, Thermo Fisher Scientific), binding buffer, various additives, a reporter molecule, and water were added, the total volume was adjusted to 80 μL, and the fluorescence intensity was measured every 2 min at 37° C. for 1 to 2 hours by using a fluorescent plate reader Synergy MX (BioTec). Regarding the measurement wavelength, for HiLyte488, an excitation wavelength of 485±20 nm and a fluorescence wavelength of 528±20 nm were used. For the IDT reporter, an excitation wavelength of 535±20 nm and a fluorescence wavelength of 595±20 nm were used. For a reporter marked with Cy5 or Alexa Fluor 647, an excitation wavelength of 620±20 nm and a fluorescence wavelength of 680±20 nm were used.
FIGS. 1A and 1B illustrate a change over time in the ratio of the fluorescence intensity of the IDT reporter to the fluorescence intensity of an internal standard dye Hilyte488.

[2] = biological target: Alt-R A.s. Cas12a (Cpf1) Ultra (Acidaminococcus sp., UniProt U2UMQ6, F870L/M537R); details: spermine 2.0 mM; NEBuffer 2.1; various concentrations of Tween 20 and BSA; FIG. 2B
Protocol: as §1, with “A ternary complex was formed by mixing 400-nM Cas12a, 500-nM crRNA, and a predetermined concentration of target DNA at a volume ratio of 1:1:2 and performing incubation at 37° C. for 30 to 60 minutes. Thereafter,” for “Thereafter,”

[3] = biological target: Alt-R A.s. Cas12a (Cpf1) Nuclease V3 (Acidaminococcus sp., UniProt U2UMQ6); details: spermine 2.0 mM; NEBuffer 2.1; various concentrations of Tween 20 and BSA; FIG. 2A
Protocol: as §1, with “A ternary complex was formed by mixing 400-nM Cas12a, 500-nM crRNA, and a predetermined concentration of target DNA at a volume ratio of 1:1:2 and performing incubation at 37° C. for 30 to 60 minutes. Thereafter,” for “Thereafter,”

NCCCN [1,3-diaminopropane]
change in the pH of binding buffer with addition concentration [1]: the pH increased with increasing the addition concentration

NCCCCNCCCN [spermidine]
rising of fluorescence compared with no addition (EnGen Lba Cas12a (Cpf1)): the rising of fluorescence equivalent to that in the instance of no addition
addition concentration at which an effect of facilitating the reaction was observed (EnGen Lba Cas12a (Cpf1)): ≥ 0.2 mM

Cl.Cl.Cl.NCCCCNCCCN [spermidine·3HCl, spermidine trihydrochloride]
change in the pH of binding buffer with addition concentration [1]: the pH hardly changed

NCCCNCCCCNCCCN [spermine]
effect of amino compound on cleavage reaction [2]: the reaction was facilitated
effect of amino compound on cleavage reaction [3]: the reaction was facilitated
effect of amino compound on cleavage reaction of Cas12a (ratio of IDT reporter fluorescence to Hilyte488) (EnGen Lba Cas12a (Cpf1); 2.0 mM, binding buffer and NEBuffer 2.1, 0.5% Tween 20 + 0.3% BSA or 1.5% Tween + 0.6% BSA, 1 nM target DNA): facilitated the reaction
effect on cleavage reaction with respect to ten types of reporter molecules (EnGen Lba Cas12a (Cpf1); 2.0 mM, binding buffer, all reporter molecules of Table 1, FIG. 3B): the effect of facilitating the reaction by addition of the amino compound was ascertained
effect of facilitating the reaction (EnGen Lba Cas12a (Cpf1); 7.8 mM (FIG. 5A) or 1.4 mM (FIGS. 5B and 5C), binding buffer, IDT reporter): a high effect of facilitating the reaction
rising of fluorescence compared with no addition (EnGen Lba Cas12a (Cpf1)): the rising of fluorescence was reduced compared with the instance of no addition
addition concentration at which an effect of facilitating the reaction was observed (EnGen Lba Cas12a (Cpf1)): ≤ 7.8 mM
cleavage activity against the reporter molecule depending on timing of addition of amino compound (EnGen Lba Cas12a (Cpf1); final 2.0 mM, conditions 1 to 6, binding buffer, FIGS. 9A to 9C): higher under condition 2, condition 4, and condition 6
effect of amino compound on cleavage reaction (EnGen Lba Cas12a (Cpf1); spermine 2.0 mM, NEBuffer 2.1, various concentrations of Tween 20 and BSA, FIG. 2C): the reaction was facilitated
change in the pH of binding buffer with addition concentration [1]: the pH increased with increasing the addition concentration
